Common to all, as to type: cell-based
For assay [1], the target named is T1, SMARCA4 (Homo sapiens, UniProt P51532).
T1 construct: SMARCA2 and SMARCA4 protein degradation in MV4-11 cells; endogenous in cells; host or cells: MV4-11
As to the kind of experiment: SMARCA4 Western blot MV4-11 degradation. The settings on record: for DC50 / Dmax: 24 h; for DC50: read-out: SMARCA4 MSD MV411 degradation 24 h: Mean external-Abs DC50; for Dmax: MV4-11, MV4-11 cells, read-out: SMARCA4 MSD MV411 degradation 24 h: average Dmax %. How it is done: Example 54. SMARCA2 and SMARCA 4 Western Blot MV4-11 Degradation
Cells were seeded into 6-well plates (MV4-11: 4×10^6 cells/well/1 ml) and 1 ml of 2× compound solution was added into the well to make the final concentration and the plates were mixed well and incubated for 24 hours (No cytotoxicity was observed). The cell were collected with media and spun at 3000 rpm for 5 minutes. The supernatant was aspirated and the well and the cells were washed with cold PBS once and combined for centrifugation again; the supernatant aspirated again. 200 ul pre-chilled RIPA lysis buffer (Boston BioProducts BP-115D) with protease/phosphatase inhibitor (Roche 05892791001/Roche 04906837001) was directly added into the tube to lyze the cells for 20 minutes on ice. The cell lysate were collected into EP tubes and spun at 13000 rpm for 20 minutes and 72 ul supernatant was transferred to a fresh EP tube containing 18 ul of 5× loading buffer (Beyotime Bio P0015) to make the loading samples. The samples were heated to 100° C. for 10 minutes and cooled to RT and microcentrifuged. 20 ul of samples were loaded onto SDS-PAGE gel (Novex, WG1402BOX) and the gel was run at 80 V for 20 minutes and 120 V for 1.5 hours. The samples were electrotransfer to a NC membrane using wet-transfer method with 250 mA for 2.5 hours. The membrane was blocked with LICOR blocking buffer (LI-COR, 927-50000) for 1 hour. The membrane was washed three times with TBST (CST #9997S), 5 minutes each. Incubation was performed with primary antibody prepared in blocking buffer with 0.1% Tween-20 (Solarbio, P8220) at 4° C. overnight (Anti-SMARCA2/BRM antibody (ab15597) 1:500; Anti-BRG1 antibody [EPR3912] (ab108318) 1:1000; Rabbit anti-Baf180 antibody [EPR15860] (Abcam, ab196022) 1:1000; mouse anti-beta-Actin (8H10D10) (CST #3700) 1:10000). The membrane was washed three times with TBST, 5 minutes each. Incubation with secondary antibody was performed for 1 hour at RT (anti-rabbit IgG (Licor, 926-32211) 1:5000; anti-mouse IgG (LI-COR, 926-68070) 1:5000). The membrane was washed three times with TBST, 5 minutes each and lastly the LiCOR was read.
The letter codes for SMARCA degradation potency (DC50) include: A (<100 nM), B (100-500 nM), C (501-1000 nM), and D (>1000 nM). The letter codes for the percentage of SMARCA degradation after 24 hours (Dmax %) include: A (>90% degradation), B (>70-90% degradation), C (50-70% degradation), and D (<50% degradation).
In general terms: A western blot detects proteins with antibodies after separation by electrophoresis.

For assay [2], the target named is T2, SMARCA2 (Homo sapiens, UniProt P51531). As to the kind of experiment: MSD SMARCA2 degradation in A549 cell line. Also noted: endogenous in cells. The settings on record: for DC50 / Dmax: 24 h; for DC50: read-out: SMARCA2 MSD A549 degradation 24 h: Average external-Abs DC50; for Dmax: A549, A549 cells. How it is done:
Example 53. MSD SMARCA2 Degradation in A549 Cell Line
Cells were seeded into 96-well plates (A549 cells: 2×10^4 cells/well/100 ul media) abd incubated overnight. The next day, 200 nl compound were added into the intermediate plate with Echo (Labcyte 550) from source plate containing a 3-fold serial dilution from top concentration of 1 mM. The culture medium was changed with 80 ul of fresh medium and 80 ul of 2× compound solution was added into the well to make a final concentration of 1000 nM, 333.3 nM, 111.1 nM, 37.04 nM, 12.35 nM, 4.115 nM, 1.372 nM, 0.457 nM, 0.152 nM and 0 nM (DMSO). The wells were mixed and then incubated for 24 hours. The media was aspirated from the cultures and 60 ul pre-chilled PIPA lysis buffer (Boston BioProducts BP-115D) with protease/phosphatase inhibitor (Roche 05892791001/Roche 04906837001) was added into the well to lyze the cells for 20 minutes at 4° C. The MSD plate (L15XA) was coated with 40 ul cell lysate and incubated at 4° C. overnight. The next day, the plate was washed three times with TBST (CST #9997S), 150 ul/well. The MSD plates was blocked with 150 ul blocking buffer per well and shaked for 1 hr at R^†, 600 rpm. The blocking buffer was 3% Blocker A (MSD, R93BA-4) in TBST. The MSD plate was washed three times with 150 ul/well of TBST and 25 ul/well of detection antibody (Rabbit anti-SMARCA2/BRM antibody, 100 μg/ml, ab223735) was added at final concentration of 1 ug/mi diluted in 1% o Blocking buffer and shaken for 1 hour at R^†, 600 rpm. The MSD plate was washed three times with 150 ul/well of TBST and 25 ul/well of SULFO-TAG anti-rabbit antibody (MSD, R32AB-1) was added at final concentration of 1 μg/ml diluted in […] Blocking buffer and shaken for 1 hour at R^†, 600 rpm. The MSD plate was washed three times with 150 ul/well of TBST and 150 ul/well of 2×MSD reading buffer diluted from 4× (MSD, R92TC-2) with water was added. Lastly, the MSD instrument was read.
The letter codes for SMARCA2 degradation potency (DC50) include: A (<100 nM), B (100-500 nM), C (501-1000 nM), and D (>1000 nM). The letter codes for the percentage of SMARCA2 degradation after 24 hours (Dmax % o) include: A (>90% o degradation), B (>70-90% o degradation), C (50-70% o degradation), and D (<50% degradation).

The target in assay [3] is T2, SMARCA2. As to the kind of experiment: SMARCA2 Western blot MV4-11 degradation. Also noted: SMARCA2 and SMARCA4 protein degradation in MV4-11 cells; endogenous in cells; host or cells: MV4-11. As to conditions: for DC50 / Dmax: 24 h; for DC50: read-out: SMARCA2 MSD MV411 degradation 24 h: Mean external-Abs DC50; for Dmax: MV4-11, MV4-11 cells, read-out: SMARCA2 MSD MV411 degradation 24 h: average Dmax %.

T1 sequence (P51532 whole entry): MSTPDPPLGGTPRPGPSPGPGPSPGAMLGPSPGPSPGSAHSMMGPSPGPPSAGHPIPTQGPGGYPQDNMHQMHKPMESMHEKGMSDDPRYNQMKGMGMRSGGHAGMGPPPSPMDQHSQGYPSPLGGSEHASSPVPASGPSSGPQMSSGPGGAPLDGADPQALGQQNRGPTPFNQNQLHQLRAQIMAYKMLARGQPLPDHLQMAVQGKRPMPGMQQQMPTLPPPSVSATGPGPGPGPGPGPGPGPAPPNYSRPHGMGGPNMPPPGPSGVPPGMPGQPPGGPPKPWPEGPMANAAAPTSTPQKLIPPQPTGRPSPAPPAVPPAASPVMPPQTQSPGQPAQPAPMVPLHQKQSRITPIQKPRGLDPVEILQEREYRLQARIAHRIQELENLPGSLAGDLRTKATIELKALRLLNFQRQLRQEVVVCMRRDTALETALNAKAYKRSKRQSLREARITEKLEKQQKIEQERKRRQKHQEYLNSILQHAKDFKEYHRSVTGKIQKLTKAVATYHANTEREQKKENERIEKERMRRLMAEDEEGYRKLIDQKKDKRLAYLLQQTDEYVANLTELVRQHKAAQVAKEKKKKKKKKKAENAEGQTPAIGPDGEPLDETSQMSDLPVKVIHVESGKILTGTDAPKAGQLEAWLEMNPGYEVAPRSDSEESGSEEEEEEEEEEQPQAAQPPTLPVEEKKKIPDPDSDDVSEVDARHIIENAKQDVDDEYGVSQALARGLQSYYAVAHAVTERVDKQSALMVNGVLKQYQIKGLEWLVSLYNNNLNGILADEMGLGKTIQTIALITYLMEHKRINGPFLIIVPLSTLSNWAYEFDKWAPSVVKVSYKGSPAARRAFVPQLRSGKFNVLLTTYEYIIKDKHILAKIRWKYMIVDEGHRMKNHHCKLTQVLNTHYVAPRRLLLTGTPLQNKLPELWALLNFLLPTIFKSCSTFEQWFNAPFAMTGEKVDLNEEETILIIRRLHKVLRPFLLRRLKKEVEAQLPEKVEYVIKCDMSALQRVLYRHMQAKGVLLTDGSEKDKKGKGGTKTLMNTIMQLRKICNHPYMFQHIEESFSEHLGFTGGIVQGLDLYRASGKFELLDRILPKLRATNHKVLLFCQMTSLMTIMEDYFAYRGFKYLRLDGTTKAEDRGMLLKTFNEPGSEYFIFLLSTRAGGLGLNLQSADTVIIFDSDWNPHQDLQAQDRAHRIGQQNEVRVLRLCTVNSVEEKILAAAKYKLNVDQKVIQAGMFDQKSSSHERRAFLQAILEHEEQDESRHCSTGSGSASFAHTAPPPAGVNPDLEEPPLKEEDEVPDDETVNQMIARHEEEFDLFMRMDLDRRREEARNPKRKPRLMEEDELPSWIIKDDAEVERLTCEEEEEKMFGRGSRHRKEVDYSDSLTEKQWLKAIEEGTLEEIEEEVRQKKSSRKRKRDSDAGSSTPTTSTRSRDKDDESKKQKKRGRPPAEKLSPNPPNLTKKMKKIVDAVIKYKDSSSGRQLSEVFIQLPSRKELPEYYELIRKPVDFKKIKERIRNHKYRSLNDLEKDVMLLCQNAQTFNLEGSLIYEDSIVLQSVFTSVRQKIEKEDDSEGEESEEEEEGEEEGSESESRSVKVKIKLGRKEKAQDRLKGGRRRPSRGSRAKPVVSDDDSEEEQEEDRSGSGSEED
T2 sequence (P51531 whole entry): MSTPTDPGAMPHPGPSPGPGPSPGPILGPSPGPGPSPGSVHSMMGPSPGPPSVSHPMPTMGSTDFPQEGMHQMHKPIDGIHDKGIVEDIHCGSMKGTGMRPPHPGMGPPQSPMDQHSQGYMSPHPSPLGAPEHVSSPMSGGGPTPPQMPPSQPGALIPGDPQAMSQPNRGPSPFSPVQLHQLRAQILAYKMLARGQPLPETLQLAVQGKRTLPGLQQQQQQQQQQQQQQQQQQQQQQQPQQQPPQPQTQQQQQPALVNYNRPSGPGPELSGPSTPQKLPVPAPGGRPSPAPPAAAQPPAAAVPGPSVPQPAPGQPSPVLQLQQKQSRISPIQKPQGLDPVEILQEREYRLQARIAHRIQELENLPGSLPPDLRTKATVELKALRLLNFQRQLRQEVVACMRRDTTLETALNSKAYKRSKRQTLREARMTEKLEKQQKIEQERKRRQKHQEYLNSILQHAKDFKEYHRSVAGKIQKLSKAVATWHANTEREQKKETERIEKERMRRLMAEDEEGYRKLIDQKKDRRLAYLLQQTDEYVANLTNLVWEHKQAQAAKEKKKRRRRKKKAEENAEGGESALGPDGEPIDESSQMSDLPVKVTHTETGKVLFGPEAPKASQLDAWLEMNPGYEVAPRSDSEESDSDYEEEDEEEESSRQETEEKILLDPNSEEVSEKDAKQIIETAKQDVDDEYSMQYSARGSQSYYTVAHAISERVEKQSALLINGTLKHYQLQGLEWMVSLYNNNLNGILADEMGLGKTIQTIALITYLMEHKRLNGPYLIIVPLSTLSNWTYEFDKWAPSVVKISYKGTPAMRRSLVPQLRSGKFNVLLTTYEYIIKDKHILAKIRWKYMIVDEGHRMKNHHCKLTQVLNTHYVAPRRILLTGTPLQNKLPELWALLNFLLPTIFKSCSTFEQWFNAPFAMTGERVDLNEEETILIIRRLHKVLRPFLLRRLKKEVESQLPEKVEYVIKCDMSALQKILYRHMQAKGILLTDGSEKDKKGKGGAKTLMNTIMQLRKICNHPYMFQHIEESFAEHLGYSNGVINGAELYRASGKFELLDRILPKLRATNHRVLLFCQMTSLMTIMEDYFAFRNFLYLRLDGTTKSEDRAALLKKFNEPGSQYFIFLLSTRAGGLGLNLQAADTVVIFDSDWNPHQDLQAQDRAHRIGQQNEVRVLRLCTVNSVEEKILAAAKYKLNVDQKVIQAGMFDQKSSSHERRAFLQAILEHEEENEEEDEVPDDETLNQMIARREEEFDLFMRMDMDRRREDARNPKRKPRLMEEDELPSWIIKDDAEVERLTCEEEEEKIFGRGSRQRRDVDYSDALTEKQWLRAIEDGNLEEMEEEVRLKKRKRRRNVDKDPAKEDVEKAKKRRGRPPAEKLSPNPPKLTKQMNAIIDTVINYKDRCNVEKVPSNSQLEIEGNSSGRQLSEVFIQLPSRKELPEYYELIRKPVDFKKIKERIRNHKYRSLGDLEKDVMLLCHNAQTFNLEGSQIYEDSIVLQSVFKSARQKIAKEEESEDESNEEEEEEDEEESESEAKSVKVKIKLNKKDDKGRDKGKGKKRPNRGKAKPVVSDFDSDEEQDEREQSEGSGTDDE

The term DC50 denotes the midpoint of the concentration-degradation curve. Regarding `Cc1ncsc1-c1ccc(CNC(=O)[C@@H]2C[C@@H](O)CN2C(=O)[C@@H](NC(=O)[C@H]2CC3(C2)C[C@H](N2CCN(c4cnc(N5C6CCC5CN(c5cc(-c7ccccc7O)nnc5N)C6)nc4)CC2)C3)C(C)(C)C)cc1` (single isomer, unassigned) [I-9], in assay [1] (MV4-11 cells), the “SMARCA4 MSD MV411 degradation 24 h: average Dmax %” value is “D (D (<50% degradation))” and the DC50 was greater than 1000 nM. Besides, in assay [2] (A549 cells), the “SMARCA2 MSD A549 degradation 24 h: Average Dmax %” value is “B (B (>70-90% o degradation))” and the DC50 was 100 to 500 nM. Besides, in assay [3] (MV4-11 cells), the “SMARCA2 MSD MV411 degradation 24 h: average Dmax %” value was “B (B (>70-90% degradation))” and the DC50 is less than 100 nM.

Broadly, the Dmax is the greatest extent of degradation seen. In the case of `Cc1ncsc1-c1ccc([C@H](C)NC(=O)[C@@H]2C[C@@H](O)CN2C(=O)[C@@H](NC(=O)[C@H]2CCC3(CC2)C[C@H](N2CCC(c4cnc(N5C6CCC5CN(c5cc(-c7ccccc7O)nnc5N)C6)nc4)CC2)C3)C(C)(C)C)cc1` (stereo in doubt) [I-15, (2S,4S)-1-((2S)-2-(2-(4-(2-(3-(3-amino-6-(2-hydroxyphenyl)pyridazin-4-yl)-3,8-diazabicyclo[3.2.1]octan-8-yl)pyrimidin-5-yl)piperidin-1-yl)spiro[3.5]nonane-7-carboxamido)-3,3-dimethylbutanoyl)-4-hydroxy-N—((S)-1-(4-(4-methylthiazol-5-yl)phenyl)ethyl)pyrrolidine-2-carboxamide], the figures for the Dmax in assay [1], in assay [2] and in assay [3] were 50 to 70%, greater than 90% and greater than 90%, respectively. The DC50 in assay [1] (MV4-11 cells) was greater than 1000 nM; in assay [2] (A549 cells), 100 to 500 nM; in assay [3] (MV4-11 cells) it was less than 100 nM.

`Cc1ncsc1-c1ccc(CNC(=O)[C@@H]2C[C@@H](O)CN2C(=O)[C@@H](NC(=O)C2CC3(C2)CN(C2CCC(c4cnc(N5C6CCC5CN(c5cc(-c7ccccc7O)nnc5N)C6)nc4)CC2)C3)C(C)(C)C)cc1` (stereo partly drawn) [I-7, 2-(4-(2-(3-(3-amino-6-(2-hydroxyphenyl)pyridazin-4-yl)-3,8-diazabicyclo[3.2.1]octan-8-yl)pyrimidin-5-yl)cyclohexyl)-N—((S)-1-((2S,4R)-4-hydroxy-2-((4-(4-methylthiazol-5-yl)benzyl)carbamoyl)pyrrolidin-1-yl)-3,3-dimethyl-1-oxobutan-2-yl)-2-azaspiro[3.3]heptane-6-carboxamide]: the Dmax was less than 50% in assay [1], 70 to 90% in assay [2] and 70 to 90% in assay [3]. In addition, the DC50 was greater than 1000 nM in assay [1] (MV4-11 cells), 501 to 1000 nM in assay [2] (A549 cells) and less than 100 nM in assay [3] (MV4-11 cells).

Take `Cc1ncsc1-c1ccc(CNC(=O)[C@@H]2C[C@@H](O)CN2C(=O)[C@@H](NC(=O)C2CC3(C2)CN(C2CCN(c4cnc(N5C6CCC5CN(c5cc(-c7ccccc7O)nnc5N)C6)nc4)CC2)C3)C(C)(C)C)cc1` [I-10, 2-(1-(2-(3-(3-amino-6-(2-hydroxyphenyl)pyridazin-4-yl)-3,8-diazabicyclo[3.2.1]octan-8-yl)pyrimidin-5-yl)piperidin-4-yl)-N—((S)-1-((2S,4R)-4-hydroxy-2-((4-(4-methylthiazol-5-yl)benzyl)carbamoyl)pyrrolidin-1-yl)-3,3-dimethyl-1-oxobutan-2-yl)-2-azaspiro[3.3]heptane-6-carboxamide]: the greatest degradation seen (Dmax) was less than 50% in assay [1], 70 to 90% in assay [2] and 70 to 90% in assay [3]. Further, the DC50 is greater than 1000 nM in assay [1] (MV4-11 cells), 501 to 1000 nM in assay [2] (A549 cells) and less than 100 nM in assay [3] (MV4-11 cells).

For the origin of these results see patent US12606568B2, “SMARCA degraders and uses thereof” (Kymera Therapeutics, Inc., priority 2020, dated 2026).
